In patent US9302991B2, “Arylamide derivatives as TTX-S blockers” (RaQualia Pharma Inc., priority 2010, dated 2016) one finds IC50 data, which are given here for 23 compounds.

What is called IC50 is the concentration that inhibits the measured activity by half.

Each structure is given as a SMILES string. Some results are limits rather than exact numbers.

One assay has as its target T1, human Nav1.3 channels (Homo sapiens, UniProt Q9NY46).
T1 construct: expressed in transfected cells; host or cells: HEK293
As to the kind of experiment: FRET assay, human Nav1.3 (EFS on FDSS). The assay is classed as cell-based. To be noted: HEK293 cells expressing human Nav1.3, read-out: IC50 against Nav1.3. A digest of the protocol:
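HEK293 cells expressing the channel, loaded with 10 microM CC2-DMPE then 15 microM DiSBAC2(3) plus 0.555 mM VABSC-1 in pH 7.4 HEPES buffer at room temperature. Membrane potential changes evoked by electrical field stimulation after compound addition; IC50 from 440 nm-normalized FRET ratios.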

A further assay addresses T2, human Nav1.7 channels (Homo sapiens, UniProt Q15858).
T2 construct: expressed in transfected cells; host or cells: CHO
Description: FRET assay, human Nav1.7 (EFS on FDSS). To be noted: CHO cells expressing human Nav1.7, read-out: IC50 against Nav1.7. The assay is classed as cell-based. A digest of the protocol:
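CHO cells stably expressing the channel, loaded with CC2-DMPE (10 µM) then DiSBAC2(3) (15 µM) plus VABSC-1, in HEPES-buffered saline pH 7.4 at room temperature. Electrical field stimulation on FDSS; FRET ratio at 440 nm fitted for IC50.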

T2 sequence (Q15858 whole entry): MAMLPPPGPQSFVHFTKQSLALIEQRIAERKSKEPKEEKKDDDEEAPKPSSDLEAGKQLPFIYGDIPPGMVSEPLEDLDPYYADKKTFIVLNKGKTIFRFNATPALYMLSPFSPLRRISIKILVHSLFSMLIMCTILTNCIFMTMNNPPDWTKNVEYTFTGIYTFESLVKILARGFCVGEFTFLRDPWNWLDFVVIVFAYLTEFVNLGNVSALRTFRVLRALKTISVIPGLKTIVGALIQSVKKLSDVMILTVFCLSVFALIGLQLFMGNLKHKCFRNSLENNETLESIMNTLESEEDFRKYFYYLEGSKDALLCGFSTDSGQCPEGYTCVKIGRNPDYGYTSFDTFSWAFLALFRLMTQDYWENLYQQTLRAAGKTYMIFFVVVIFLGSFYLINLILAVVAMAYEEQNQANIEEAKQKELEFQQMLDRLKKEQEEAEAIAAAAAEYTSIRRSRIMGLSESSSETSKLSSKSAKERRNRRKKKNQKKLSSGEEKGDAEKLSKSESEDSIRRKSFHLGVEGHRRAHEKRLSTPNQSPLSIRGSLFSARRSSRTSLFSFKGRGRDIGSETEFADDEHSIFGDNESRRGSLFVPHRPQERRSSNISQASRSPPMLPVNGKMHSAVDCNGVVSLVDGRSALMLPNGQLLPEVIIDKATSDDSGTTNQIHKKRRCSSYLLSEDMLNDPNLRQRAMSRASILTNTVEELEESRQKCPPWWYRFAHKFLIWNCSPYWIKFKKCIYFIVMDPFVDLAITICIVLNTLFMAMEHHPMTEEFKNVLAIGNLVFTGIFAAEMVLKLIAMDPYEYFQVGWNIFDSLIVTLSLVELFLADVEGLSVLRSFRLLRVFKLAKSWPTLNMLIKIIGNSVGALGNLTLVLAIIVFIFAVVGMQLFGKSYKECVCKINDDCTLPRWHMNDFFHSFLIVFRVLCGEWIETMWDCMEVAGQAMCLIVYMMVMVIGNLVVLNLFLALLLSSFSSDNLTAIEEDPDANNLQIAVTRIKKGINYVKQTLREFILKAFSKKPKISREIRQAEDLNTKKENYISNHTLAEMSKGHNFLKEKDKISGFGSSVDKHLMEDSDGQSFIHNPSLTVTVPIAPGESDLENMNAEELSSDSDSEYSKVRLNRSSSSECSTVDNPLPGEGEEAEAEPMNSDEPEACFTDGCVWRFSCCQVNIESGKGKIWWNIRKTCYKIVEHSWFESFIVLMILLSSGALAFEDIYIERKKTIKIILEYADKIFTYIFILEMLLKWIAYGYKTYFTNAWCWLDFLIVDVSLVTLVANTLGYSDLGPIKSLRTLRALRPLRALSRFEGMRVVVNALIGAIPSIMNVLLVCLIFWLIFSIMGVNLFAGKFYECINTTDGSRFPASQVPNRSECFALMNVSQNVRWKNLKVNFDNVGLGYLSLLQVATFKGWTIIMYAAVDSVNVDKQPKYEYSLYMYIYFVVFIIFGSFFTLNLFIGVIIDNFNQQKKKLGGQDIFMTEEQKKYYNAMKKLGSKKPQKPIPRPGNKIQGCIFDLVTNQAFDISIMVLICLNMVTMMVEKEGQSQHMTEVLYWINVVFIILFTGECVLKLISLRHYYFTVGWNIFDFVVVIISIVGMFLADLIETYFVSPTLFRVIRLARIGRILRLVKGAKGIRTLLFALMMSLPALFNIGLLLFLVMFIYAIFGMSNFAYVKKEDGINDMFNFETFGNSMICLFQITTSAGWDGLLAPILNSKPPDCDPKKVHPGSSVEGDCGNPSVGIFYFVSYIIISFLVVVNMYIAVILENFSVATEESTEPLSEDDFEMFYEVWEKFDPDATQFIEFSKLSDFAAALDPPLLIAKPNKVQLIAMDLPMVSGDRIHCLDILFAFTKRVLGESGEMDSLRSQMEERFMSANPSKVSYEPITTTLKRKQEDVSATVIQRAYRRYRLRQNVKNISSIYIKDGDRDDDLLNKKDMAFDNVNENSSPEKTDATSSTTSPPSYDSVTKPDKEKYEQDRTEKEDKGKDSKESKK
T1 sequence (Q9NY46 whole entry): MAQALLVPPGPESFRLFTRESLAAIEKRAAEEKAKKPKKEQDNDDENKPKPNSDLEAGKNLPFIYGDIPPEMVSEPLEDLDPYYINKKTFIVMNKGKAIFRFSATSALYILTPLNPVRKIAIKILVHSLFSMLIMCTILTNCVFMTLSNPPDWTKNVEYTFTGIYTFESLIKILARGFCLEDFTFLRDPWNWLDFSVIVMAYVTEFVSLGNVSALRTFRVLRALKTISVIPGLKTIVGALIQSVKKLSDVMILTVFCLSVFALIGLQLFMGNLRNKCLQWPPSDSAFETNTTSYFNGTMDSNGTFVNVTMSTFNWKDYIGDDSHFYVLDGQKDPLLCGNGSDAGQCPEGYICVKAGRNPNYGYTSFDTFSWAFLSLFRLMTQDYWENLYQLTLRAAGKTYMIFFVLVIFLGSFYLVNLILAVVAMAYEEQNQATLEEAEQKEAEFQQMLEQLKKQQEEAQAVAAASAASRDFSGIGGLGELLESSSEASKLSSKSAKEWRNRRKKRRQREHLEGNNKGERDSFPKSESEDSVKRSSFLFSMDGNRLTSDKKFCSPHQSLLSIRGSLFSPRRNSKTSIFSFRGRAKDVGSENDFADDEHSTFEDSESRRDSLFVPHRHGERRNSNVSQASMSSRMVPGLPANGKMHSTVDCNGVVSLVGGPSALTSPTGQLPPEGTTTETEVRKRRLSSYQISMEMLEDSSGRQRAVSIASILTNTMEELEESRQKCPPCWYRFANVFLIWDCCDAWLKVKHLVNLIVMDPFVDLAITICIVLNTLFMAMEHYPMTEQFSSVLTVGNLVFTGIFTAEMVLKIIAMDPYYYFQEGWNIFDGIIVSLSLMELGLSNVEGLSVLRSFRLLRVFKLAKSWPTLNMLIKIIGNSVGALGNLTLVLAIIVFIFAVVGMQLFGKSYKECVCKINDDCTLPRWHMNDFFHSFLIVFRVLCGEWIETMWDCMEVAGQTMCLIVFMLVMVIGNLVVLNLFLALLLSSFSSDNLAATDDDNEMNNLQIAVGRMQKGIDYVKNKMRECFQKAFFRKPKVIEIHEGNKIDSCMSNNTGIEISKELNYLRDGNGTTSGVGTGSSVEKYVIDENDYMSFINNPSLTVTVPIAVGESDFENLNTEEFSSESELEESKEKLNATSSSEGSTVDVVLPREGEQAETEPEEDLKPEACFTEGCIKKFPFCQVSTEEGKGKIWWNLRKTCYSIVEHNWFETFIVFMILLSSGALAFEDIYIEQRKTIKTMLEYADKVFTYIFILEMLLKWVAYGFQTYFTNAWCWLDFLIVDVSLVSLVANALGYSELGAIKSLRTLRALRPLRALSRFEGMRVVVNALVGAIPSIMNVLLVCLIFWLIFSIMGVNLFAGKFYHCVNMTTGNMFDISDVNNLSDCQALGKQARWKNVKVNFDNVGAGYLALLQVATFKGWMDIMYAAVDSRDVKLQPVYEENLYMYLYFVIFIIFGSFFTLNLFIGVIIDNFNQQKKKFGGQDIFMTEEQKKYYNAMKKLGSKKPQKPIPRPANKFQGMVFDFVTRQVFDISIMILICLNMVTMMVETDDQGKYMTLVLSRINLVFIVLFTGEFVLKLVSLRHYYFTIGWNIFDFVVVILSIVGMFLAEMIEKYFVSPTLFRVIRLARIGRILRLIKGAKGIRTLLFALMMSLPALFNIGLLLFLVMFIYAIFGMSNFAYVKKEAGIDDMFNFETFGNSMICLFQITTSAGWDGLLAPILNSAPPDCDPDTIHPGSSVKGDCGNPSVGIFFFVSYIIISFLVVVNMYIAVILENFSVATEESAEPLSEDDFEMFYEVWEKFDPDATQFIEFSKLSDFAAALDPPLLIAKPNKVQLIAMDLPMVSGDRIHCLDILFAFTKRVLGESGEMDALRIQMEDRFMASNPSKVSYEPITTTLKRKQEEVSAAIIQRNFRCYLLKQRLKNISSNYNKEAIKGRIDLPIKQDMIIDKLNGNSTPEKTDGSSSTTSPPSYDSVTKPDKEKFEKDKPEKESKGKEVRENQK

For the compound `Cc1cc(C(C)NC(=O)c2ccnc(NC(=O)C3CC3)c2)cnc1OCC(F)(F)C(F)F` (single isomer, unassigned) [Example 926, 2-(cyclopropanecarboxamido)-N-(1-(5-methyl-6-(2,2,3,3-tetrafluoropropoxy)pyridin-3-yl)ethyl)isonicotinamide], the IC50 on human Nav1.3 channels and at human Nav1.7 channels was less than 1000 nM each time.

For the compound `CC(=O)Nc1cc(C(=O)NC(C)c2cnc(OCC(F)(F)C(F)F)c(C)c2)cc(C)n1` (single isomer, unassigned) [Example 927, 2-acetamido-6-methyl-N-(1-(5-methyl-6-(2,2,3,3-tetrafluoropropoxy)pyridin-3-yl)ethyl)isonicotinamide], the IC50 at human Nav1.3 channels and on human Nav1.7 channels was less than 1000 nM in each case.

As for `Cc1cc(C(=O)NC(C)c2cnc(OCC(F)(F)F)c(C)c2)cc(NC(=O)CC2CC2)n1` (single isomer, unassigned) [Example 953, 2-(2-cyclopropylacetamido)-6-methyl-N-(1-(5-methyl-6-(2,2,2-trifluoroethoxy)pyridin-3-yl)ethyl)isonicotinamide], the IC50 on human Nav1.3 channels and at human Nav1.7 channels was less than 1000 nM in each case.

For `CCC(=O)Nc1cc(C(=O)NCc2cnc(OCC(F)(F)F)c(Cl)c2)ccn1` [Example 94, N-((5-chloro-6-(2,2,2-trifluoroethoxy)pyridin-3-yl)methyl)-2-propionamidoisonicotinamide], the IC50 on human Nav1.3 channels and on human Nav1.7 channels was less than 1000 nM throughout.

For the compound `CCC(=O)Nc1cc(C(=O)NCc2cccc(C(F)(F)F)c2)cc(C)n1` [Example 127, 2-methyl-6-propionamido-N-(3-(trifluoromethyl)benzyl)isonicotinamide], the 50% inhibitory concentration (IC50) at human Nav1.3 channels and on human Nav1.7 channels was less than 1000 nM in each case.

As to `CCC(=O)Nc1cc(C(=O)NCc2cc(C(F)(F)F)ccc2F)cc(C)n1` [Example 128, N-(2-fluoro-5-(trifluoromethyl)benzyl)-2-methyl-6-propionamidoisonicotinamide], the IC50 on human Nav1.3 channels and on human Nav1.7 channels was less than 1000 nM in each case.

For the compound `CCC(=O)Nc1cc(C(=O)NCc2cccc(OC(F)F)c2)cc(C)n1` [Example 129, N-(3-(difluoromethoxy)benzyl)-2-methyl-6-propionamidoisonicotinamide], the IC50 on human Nav1.3 channels and at human Nav1.7 channels was less than 1000 nM in each case.

As to `COc1nc(OCC(F)(F)F)ccc1CNC(=O)c1ccnc(NC(=O)C2CC2)c1` [Example 147, 2-(cyclopropanecarboxamido)-N-((2-methoxy-6-(2,2,2-trifluoroethoxy)pyridin-3-yl)methyl)isonicotinamide], the IC50 on human Nav1.3 channels and at human Nav1.7 channels was less than 1000 nM throughout.

Regarding `COc1nc(OCC(F)(F)F)ccc1CNC(=O)c1ccnc(NC(C)=O)c1` [Example 148, 2-acetamido-N-((2-methoxy-6-(2,2,2-trifluoroethoxy)pyridin-3-yl)methyl)isonicotinamide], the concentration for half-maximal inhibition (IC50) on human Nav1.3 channels and at human Nav1.7 channels was less than 1000 nM each time.

On to `CCC(=O)Nc1cc(C(=O)NCc2ccc(OCC(F)(F)F)nc2OC)ccn1` [Example 149, N-((2-methoxy-6-(2,2,2-trifluoroethoxy)pyridin-3-yl)methyl)-2-propionamidoisonicotinamide], for which the IC50 at human Nav1.3 channels and on human Nav1.7 channels was less than 1000 nM each time.

As for `CCC(=O)Nc1cc(C(=O)NCc2ccc(OCC(F)(F)F)nc2OC)cc(C)n1` [Example 150, N-((2-methoxy-6-(2,2,2-trifluoroethoxy)pyridin-3-yl)methyl)-2-methyl-6-propionamidoisonicotinamide], the IC50 at human Nav1.3 channels and on human Nav1.7 channels was less than 1000 nM throughout.

Regarding `O=C(NCc1ccc(OCC(F)(F)F)nc1)c1ccnc(NC(=O)C2CC2)c1` [Example 152, 2-(cyclopropanecarboxamido)-N-((6-(2,2,2-trifluoroethoxy)pyridin-3-yl)methyl)isonicotinamide], the IC50 on human Nav1.3 channels and at human Nav1.7 channels was less than 1000 nM each time.

In the case of `CCC(=O)Nc1cc(C(=O)NCc2ccc(OCC(F)(F)F)nc2)cc(C)n1` [Example 153, 2-methyl-6-propionamido-N-((6-(2,2,2-trifluoroethoxy)pyridin-3-yl)methyl)isonicotinamide], the IC50 at human Nav1.3 channels and at human Nav1.7 channels was less than 1000 nM in each case.

For the compound `CC(C)C(=O)Nc1cc(C(=O)NCc2ccc(OCC(F)(F)F)nc2)ccn1` [Example 169, 2-isobutyramido-N-((6-(2,2,2-trifluoroethoxy)pyridin-3-yl)methyl)isonicotinamide], the IC50 at human Nav1.3 channels and on human Nav1.7 channels was less than 1000 nM each time.

Take `COc1nc(OCC(F)(F)F)ccc1CNC(=O)c1ccnc(NC(=O)C(C)C)c1` [Example 171, 2-isobutyramido-N-((2-methoxy-6-(2,2,2-trifluoroethoxy)pyridin-3-yl)methyl)isonicotinamide]: the IC50 on human Nav1.3 channels and at human Nav1.7 channels was less than 1000 nM each time.

Regarding `CCC(=O)Nc1nc(C)cc(C(=O)NCc2ccc(OCC(F)(F)F)nc2OC)n1` [Example 180, N-((2-methoxy-6-(2,2,2-trifluoroethoxy)pyridin-3-yl)methyl)-6-methyl-2-propionamidopyrimidine-4-carboxamide], the IC50 on human Nav1.3 channels and on human Nav1.7 channels was less than 1000 nM in each case.

`COc1nc(OCC(F)(F)F)ccc1CNC(=O)c1cc(C)nc(NC(C)=O)c1` [Example 241, 2-acetamido-N-((2-methoxy-6-(2,2,2-trifluoroethoxy)pyridin-3-yl)methyl)-6-methylisonicotinamide]: the half-inhibitory concentration (IC50) on human Nav1.3 channels and on human Nav1.7 channels was less than 1000 nM each time.

`CCOc1nc(OCC(F)(F)F)ccc1CNC(=O)c1cc(C)nc(NC(=O)CC)n1` [Example 359, N-((2-ethoxy-6-(2,2,2-trifluoroethoxy)pyridin-3-yl)methyl)-6-methyl-2-propionamidopyrimidine-4-carboxamide]: the IC50 at human Nav1.3 channels and at human Nav1.7 channels was less than 1000 nM throughout.

`CCOc1nc(OCC(F)(F)F)ccc1CNC(=O)c1cc(C)nc(NC(=O)C(C)C)n1` [Example 360, N-((2-ethoxy-6-(2,2,2-trifluoroethoxy)pyridin-3-yl)methyl)-2-isobutyramido-6-methylpyrimidine-4-carboxamide]: the half-maximal inhibitory concentration (IC50) at human Nav1.3 channels and on human Nav1.7 channels was less than 1000 nM throughout.

Consider `CC(=O)Nc1nc(C)cc(C(=O)NCc2cnc(OCC(F)(F)F)c(C)c2)n1` [Example 363, 2-acetamido-6-methyl-N-((5-methyl-6-(2,2,2-trifluoroethoxy)pyridin-3-yl)methyl)pyrimidine-4-carboxamide], for which the IC50 at human Nav1.3 channels and at human Nav1.7 channels was less than 1000 nM throughout.

For the compound `CCC(=O)Nc1nc(C)cc(C(=O)NCc2cnc(OCC(F)(F)F)c(C)c2)n1` [Example 364, 6-methyl-N-((5-methyl-6-(2,2,2-trifluoroethoxy)pyridin-3-yl)methyl)-2-propionamidopyrimidine-4-carboxamide], the IC50 at human Nav1.3 channels and on human Nav1.7 channels was less than 1000 nM each time.

Take `CCC(=O)Nc1cc(C(=O)NCc2cnc(OCC(F)(F)F)c(C)c2)ccn1` [Example 368, N-((5-methyl-6-(2,2,2-trifluoroethoxy)pyridin-3-yl)methyl)-2-propionamidoisonicotinamide]: the IC50 on human Nav1.3 channels and on human Nav1.7 channels was less than 1000 nM throughout.

Regarding `Cc1cc(CNC(=O)c2ccnc(NC(=O)C3CC3)c2)cnc1OCC(F)(F)F` [Example 369, 2-(cyclopropanecarboxamido)-N-((5-methyl-6-(2,2,2-trifluoroethoxy)pyridin-3-yl)methyl)isonicotinamide], the IC50 at human Nav1.3 channels and at human Nav1.7 channels was less than 1000 nM each time.
